From patent US20160007597A1, “TREATING AGENT FOR PLANT CELL WALLS, SUBSTANCE DELIVERY METHOD USING TREATING AGENT, AND SUBSTANCE DELIVERY SYSTEM” (SUNTORY HOLDINGS LIMITED, priority 2013, published 2016)
Where two headings read alike, the source gives them in different places.

Assays:
onion epidermal cells = experiment: Cell wall permeability: intracellular uptake of GFP or GFP-FT in onion bulb epidermal cells after trypsin treatment (fluorescence microscopy); type: cell-based; details: 0.1 mg GFP, 20 μM R9 peptide
Description: Various test solutions containing a fluorescent protein, GFP or GFP-FT, and the R9 peptide were prepared and applied to onion bulbs for verification of GFP uptake. The ingredients of the test solutions verified are shown below:
salt (NaCl), acidic buffer (citric acid), organic solvent (toluene, ethanol), cell wall lyase (pectolyase), surfactant (saponin, Silwet L-77, Tween 20, Triton X-100, CHAPS, CTAB, SDS), chelator (EGTA, EDTA, CDTA, BAPTA), DMSO, and glycerol.
Onion bulbs were cut into boat-shaped pieces, and test solutions (100 μl each) prepared at various concentration conditions (0.1× PBS, 1 to 100 mM chelator, 0.005% to 0.05% surfactant, 0.1 mg GFP, 20 μM R9 peptide) were applied to their surface. Each sample was allowed to stand in a dish at room temperature for 12 hours while being kept under humid conditions. Then, the test solutions were removed and the samples were washed with distilled water. After a 0.25% trypsin solution was applied in 100 μl volumes, the samples were allowed to stand for 30 minutes. After removal of the trypsin solution, the samples were washed with distilled water and their epidermal cell layers were peeled to prepare specimens, which were then observed for intracellular uptake of GFP under a fluorescence microscope (Leica, DM6000B).

protoplasts of torenia = experiment: GFP uptake into torenia protoplasts in the presence of R9 peptide (fluorescence microscopy); type: cell-based; details: 0.1 mg GFP
Description: To verify that the R9 peptide was also evenly effective for plant cells other than cultured cells, protoplasts of torenia were used and observed for their uptake of green fluorescent protein (GFP) in the presence of the R9 peptide. Torenia leaves (0.5 g) were treated in an enzyme solution (1% Onozuka RS, 0.1% pectolyase Y-23, 0.45 M mannitol) at 30° C. for 2 hours to prepare protoplasts. The protoplasts were washed with 0.45 M mannitol and then divided into 50 μl aliquots, followed by centrifugation to prepare protoplasts. The protoplasts were each suspended in 50 μl of a buffer (0.45 M mannitol, 1× PBS, 0.1 mg GFP, (0, 20, 200 μM) R9 peptide) and observed for intracellular migration of GFP under a fluorescence microscope (FIG. 1).

leaves = test system: leaves
Description: To verify the migration of the FT protein applied to leaves, the shoot apex after application was sampled and analyzed by Western blotting in an attempt to detect the FT protein. To ensure long-term application to leaves, concentration studies were conducted for EDTA.

[1] = test system: in vitro shoots of petunia; experiment: Induction of flower buds in in vitro shoots of petunia; type: in vivo; details: petunia in test tubes; 33 μg/ml FT protein, 20 μM R9 peptide, 0.1× PBS, 1 mM EDTA, 0.005% Silwet L-77; applied five times every 2 to 3 days
Description: (§1) In most cases, in vitro shoots of torenia will form no flower buds in test tubes. Likewise, in vitro shoots of petunia will form no flower buds under short-day conditions. In these in vitro shoots, the FT protein was applied to their leaf surface in an attempt to induce flower buds. To the shoot apex and leaf surface of torenia and petunia cultivated in test tubes, a test solution (33 μg/ml FT protein, 20 μM R9 peptide, 0.1× PBS, 1 mM EDTA, 0.005% Silwet L-77) was applied by being spread thinly to ensure a uniform distribution. Application was repeated five times every 2 to 3 days, and culture was also continued thereafter. As a result, flower buds were formed at around 40 days after application and eventually brought into flower in test tubes (FIG. 4).

[2] = test system: in vitro shoots of torenia; experiment: Induction of flower buds in in vitro shoots of torenia; type: in vivo; details: torenia in test tubes; 33 μg/ml FT protein, 20 μM R9 peptide, 0.1× PBS, 1 mM EDTA, 0.005% Silwet L-77; applied five times every 2 to 3 days
Description: as §1

[3] = test system: torenia bud cuttings (shoot apex); experiment: Migration of FT protein applied to leaves to the shoot apex, detected by Western blotting; type: in vivo; details: Condition 3: FT protein, 20 μM R9 peptide, 0.1× PBS, 1 mM EDTA, 0.005% Silwet L-77, applied to leaves twice; sampled one week after the first application
Description: Bud cuttings were prepared from torenia's branches each including the shoot apex. These branches were cut to an even length of approximately 10 cm containing three nodes or so, each of which was put into a 5 ml tube containing 4 ml of 0.1× PBS, followed by covering the mouth of each tube with a parafilm to avoid evaporation of PBS. Four bud cuttings were prepared for each test group, and test solutions (90 μl each) prepared under three conditions (Condition 1: 0.1× PBS, 1 mM EDTA, 0.005% Silwet L-77; Condition 2: 33 μg/ml FT protein, 0.1× PBS, 1 mM EDTA, 0.005% Silwet L-77; Condition 3: FT protein, 20 μM R9 peptide, 0.1× PBS, 1 mM EDTA, 0.005% Silwet L-77) were applied by being spread thinly over leaves at a position which was two nodes (about 3 cm) apart from the shoot apex. After air drying, these samples were maintained at 25° C. in a thermostatic incubator.
After 3 days, the test solutions were applied again, and after one week of the first application, the shoot apexes were sampled. Proteins were extracted from the shoot apex samples by the acetone method. 250 μl of an extraction buffer (10 mM Tris-HCl (pH 8.0), 0.1% CHAPS, 4.5 mM NaCl, 0.1 mM DTT, 0.2 mM EDTA, complete ULTRA1 tablets (Roche Diagnostics)) was added to each shoot apex sample obtained from 4 bud cuttings, followed by sufficient homogenization in a mixer together with zirconia beads of 4 mm diameter. […]

[4] = combination of 1 to 50 mM EDTA or EGTA and 0.005% to 0.01% Silwet L-77 or Tween 20, 12 hours

Q: “polyoxyethylene sorbitan monolaurate [Tween 20]” was tested. Which “intracellular GFP fluorescence after trypsin treatment” value (shortened to “intracellular GFP fluorescence”) (onion epidermal cells; [4]) did it give?
A: granular GFP fluorescence was strongly observed

Q: Which results are given for “R9 peptide: cell penetrating peptide composed of 9 arginine residues (RRRRRRRRR)”?
A: intracellular GFP fluorescence after trypsin treatment (onion epidermal cells; chelator-free and surfactant-free test solution, 12 hours at room temperature): no fluorescence was observed within the cells; number of cells showing GFP uptake with increase in R9 peptide concentration (protoplasts of torenia; 0, 20, 200 μM R9 peptide): cells showing GFP uptake were confirmed to increase in number; GFP uptake into protoplasts (protoplasts of torenia; 200 μM R9 peptide, 0.45 M mannitol, 1× PBS): good GFP uptake was observed

Q: For O=C(O)CN(CCOCCOCCN(CC(=O)O)CC(=O)O)CC(=O)O [EGTA, O,O′-bis(2-aminoethyl)ethylene glycol-N,N,N′,N′-tetraacetic acid], which “intracellular GFP fluorescence” value (onion epidermal cells; [4]) is on record?
A: granular GFP fluorescence was strongly observed

Q: For O=C(O)CN(CCN(CC(=O)O)CC(=O)O)CC(=O)O [EDTA, ethylenediaminetetraacetic acid], which damage to leaves (leaves; 1 mM EDTA) is on record?
A: able to be used without any problems

Q: And the damage to leaves (leaves; 100 mM EDTA)?
A: cause damage to leaves

Q: What about the “intracellular GFP fluorescence” value (onion epidermal cells; [4]) of the same molecule?
A: granular GFP fluorescence was strongly observed

Q: What does the source list for “FT protein: FLOWERING LOCUS T protein, promoter for flowering in whole plants (florigen)”?
A: time of flower bud formation after application [1]: around 40 days; time of flower bud formation after application [2]: around 40 days; FT protein signal in the shoot apex (Western blotting) [3]: FT protein signals were able to be detected in the shoot apex
